From publication PMC7531004, “Discovery of gramicidin A analogues with altered activities by multidimensional screening of a one-bead-one-compound library” (Nature Communications, 2020) come the findings set out here.

The subject of series [1] is Streptococcus pyogenes SSI-9. Kind of series: Antibacterial activity assay of bead-derived peptides (three concentrations). To be noted: S. pyogenes, bead-derived peptide solution, three concentrations. It counts as cell-based. Also noted: key: +++: inhibition by the 640-fold diluted peptide solution; ++: inhibition by the 160-fold diluted solution; +: inhibition by the 40-fold diluted solution; -: no inhibition. The procedure, abridged:
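Bead-derived library peptide stocks in DMSO were tested undiluted and after 4- and 16-fold DMSO dilution against S. pyogenes SSI-9 (2 × 10^5 CFU/well) in cation-adjusted Mueller Hinton Broth with 5% laked horse blood. After 18 h at 37 °C, wells were scored for precipitation of grown cells.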

The conditions of series [2]: cell viability/%. The procedure, abridged: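 First, library peptide stocks are diluted 250-fold in RPMI1640 with 10% heat-inactivated FBS. Next, they are mixed with P388 cells to give 1 × 10^4 cells/mL and incubated 92 h at 37 °C, 5% CO2. Finally, viability (%) is scored by WST-1 absorbance at 415 nm.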
Series [3] can be described thus: H+/Na+ transport assay of bead-derived peptides (one-point).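 Note: relative to parent gramicidin A activity set to 1.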 Type of series: biochemical. The conditions noted are these: bead-derived peptide solution, EYPC/EYPG LUVs. Also noted: key: relative activity; mean of two control wells = 1.00. The procedure, abridged:
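Pyranine (1.0 mM)-loaded LUVs containing egg yolk phosphatidylglycerol were prepared by film hydration, sonication and extrusion, then mixed with diluted bead-derived peptide in 96-well format and vortexed 30 min at room temperature. Fluorescence was normalized between untreated LUVs (0%) and Triton X-100 lysis (100%).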

In general, viability refers to a per cent measure of how many cells are alive, often set against a control.

Where a SMILES comes first, the peptide text is derived from it. [ ]: non-standard residue; d: D form. The star is where a group is joined. NHCH2CH2OH = OCCN*; For = O=C*

As for `CC(C)C[C@@H](NC(=O)[C@H](C)NC(=O)[C@H](NC(=O)[C@H](C)NC(=O)CNC(=O)[C@@H](NC=O)C(C)C)[C@H](C)O)C(=O)N[C@H](C(=O)N[C@@H](C(=O)N[C@@H](Cc1c[nH]c2ccccc12)C(=O)N[C@@H](C(=O)N[C@@H](Cc1c[nH]c2ccccc12)C(=O)N[C@H](CC(C)C)C(=O)N[C@@H](Cc1c[nH]c2ccccc12)C(=O)N[C@@H](C(=O)N[C@@H](Cc1c[nH]c2ccccc12)C(=O)NCCO)C(C)C)[C@H](C)O)C(C)C)C(C)C` [compound 10338] (For-VGA[dT]A[dL]V[dV]W[dT]W[dL]W[dV]W-NHCH2CH2OH), in series [1], the antibacterial activity result is given as “-”. In series [2], the viability was found to be 100%. In addition, in series [3], the “H+/Na+ transport activity normalized against the value of 1 (1.00)” value (shortened to “H+/Na+ transport activity normalized”) is given as 1.01.

Regarding `CC(C)C[C@@H](NC(=O)[C@H](Cc1c[nH]c2ccccc12)NC(=O)[C@@H](CC(C)C)NC(=O)[C@H](Cc1c[nH]c2ccccc12)NC(=O)[C@@H](CC(C)C)NC(=O)[C@H](Cc1c[nH]c2ccccc12)NC(=O)[C@H](NC(=O)[C@@H](NC(=O)[C@H](NC(=O)[C@H](C)NC(=O)[C@H](NC(=O)[C@H](C)NC(=O)CNC(=O)[C@@H](NC=O)C(C)C)C(C)C)C(C)C)C(C)C)[C@H](C)O)C(=O)N[C@@H](Cc1c[nH]c2ccccc12)C(=O)NCCO` [compound 10353] (For-VGA[dV]A[dV]V[dT]W[dL]W[dL]W[dL]W-NHCH2CH2OH), in series [1], the antibacterial activity result is recorded as “-”. This compound also had a viability in series [2] of 100%. Further, in series [3], the “H+/Na+ transport activity normalized” value came to 1.02.

In the case of `CNC(=O)C[C@@H](NC(=O)[C@@H](NC(=O)[C@@H](CC(C)C)NC(=O)[C@H](C)NC(=O)[C@@H](CC(C)C)NC(=O)[C@H](C)NC(=O)CNC(=O)[C@@H](NC=O)C(C)C)C(C)C)C(=O)N[C@@H](Cc1c[nH]c2ccccc12)C(=O)N[C@H](CC(C)C)C(=O)N[C@@H](Cc1c[nH]c2ccccc12)C(=O)N[C@@H](C(=O)N[C@@H](Cc1c[nH]c2ccccc12)C(=O)N[C@@H](C(=O)N[C@@H](Cc1c[nH]c2ccccc12)C(=O)NCCO)C(C)C)C(C)C` [compound 10379] (For-VGA[dL]A[dL]V[dD](NHMe)W[dL]W[dV]W[dV]W-NHCH2CH2OH), in series [1], the antibacterial activity result is reported as “-”. The compound also gave a viability in series [2] of 100%. For the same compound, the “H+/Na+ transport activity normalized” value in series [3] was found to be 1.08.

Regarding `CC(C)C[C@@H](NC(=O)[C@H](C)NC(=O)CNC(=O)[C@@H](NC=O)C(C)C)C(=O)N[C@@H](C)C(=O)N[C@@H](C(=O)N[C@H](C(=O)N[C@@H](C(=O)N[C@@H](Cc1c[nH]c2ccccc12)C(=O)N[C@H](CC(C)C)C(=O)N[C@@H](Cc1c[nH]c2ccccc12)C(=O)N[C@@H](C(=O)N[C@@H](Cc1c[nH]c2ccccc12)C(=O)N[C@@H](C(=O)N[C@@H](Cc1c[nH]c2ccccc12)C(=O)NCCO)C(C)C)C(C)C)[C@H](C)O)C(C)C)C(C)C` [compound 10400] (For-VGA[dL]A[dV]V[dT]W[dL]W[dV]W[dV]W-NHCH2CH2OH), the antibacterial activity entry in series [1] was “-”. The compound further yielded a viability in series [2] of 100%. Moreover, the “H+/Na+ transport activity normalized” value in series [3] is 1.04.

Regarding `CC(C)C[C@@H](NC(=O)[C@H](Cc1c[nH]c2ccccc12)NC(=O)[C@H](NC(=O)[C@H](Cc1c[nH]c2ccccc12)NC(=O)[C@H](NC(=O)[C@@H](NC(=O)[C@H](NC(=O)[C@H](C)NC(=O)[C@H](NC(=O)[C@H](C)NC(=O)CNC(=O)[C@@H](NC=O)C(C)C)C(C)C)C(C)C)C(C)C)[C@H](C)O)C(C)C)C(=O)N[C@@H](Cc1c[nH]c2ccccc12)C(=O)N[C@@H](C(=O)N[C@@H](Cc1c[nH]c2ccccc12)C(=O)NCCO)C(C)C` [compound 10506] (For-VGA[dV]A[dV]V[dT]W[dV]W[dL]W[dV]W-NHCH2CH2OH), the antibacterial activity entry in series [1] is reported as “-”. In addition, in series [2], the viability is 91.3%. In addition, the “H+/Na+ transport activity normalized” value in series [3] came to 1.18.

In the case of `CC(C)C[C@@H](NC(=O)[C@H](C)NC(=O)CNC(=O)[C@@H](NC=O)C(C)C)C(=O)N[C@@H](C)C(=O)N[C@H](CC(C)C)C(=O)N[C@H](C(=O)N[C@@H](C(=O)N[C@@H](Cc1c[nH]c2ccccc12)C(=O)N[C@@H](C(=O)N[C@@H](Cc1c[nH]c2ccccc12)C(=O)N[C@@H](C(=O)N[C@@H](Cc1c[nH]c2ccccc12)C(=O)N[C@@H](C(=O)N[C@@H](Cc1c[nH]c2ccccc12)C(=O)NCCO)C(C)C)C(C)C)C(C)C)[C@H](C)O)C(C)C` [compound 10609] (For-VGA[dL]A[dL]V[dT]W[dV]W[dV]W[dV]W-NHCH2CH2OH), the antibacterial activity entry in series [1] was “-”. The compound also returned a viability in series [2] of 79.4%. In addition, the “H+/Na+ transport activity normalized” value in series [3] was 1.15.

With `CNC(=O)C[C@@H](NC(=O)[C@H](C)NC(=O)CNC(=O)[C@@H](NC=O)C(C)C)C(=O)N[C@@H](C)C(=O)N[C@@H](C(=O)N[C@H](C(=O)N[C@@H](C(=O)N[C@@H](Cc1c[nH]c2ccccc12)C(=O)N[C@H](CC(C)C)C(=O)N[C@@H](Cc1c[nH]c2ccccc12)C(=O)N[C@H](CC(C)C)C(=O)N[C@@H](Cc1c[nH]c2ccccc12)C(=O)N[C@H](CC(C)C)C(=O)N[C@@H](Cc1c[nH]c2ccccc12)C(=O)NCCO)C(C)C)C(C)C)C(C)C` [compound 10673] (For-VGA[dD](NHMe)A[dV]V[dV]W[dL]W[dL]W[dL]W-NHCH2CH2OH), the antibacterial activity entry in series [1] was “-”. This compound also came in with a viability in series [2] of 97.7%. Moreover, in series [3], the “H+/Na+ transport activity normalized” value stood at 1.01.

With `CC(C)C[C@@H](NC(=O)[C@H](C)NC(=O)CNC(=O)[C@@H](NC=O)C(C)C)C(=O)N[C@@H](C)C(=O)N[C@@H](C(=O)N[C@H](C(=O)N[C@@H](C(=O)N[C@@H](Cc1c[nH]c2ccccc12)C(=O)N[C@@H](C(=O)N[C@@H](Cc1c[nH]c2ccccc12)C(=O)N[C@H](CC(C)C)C(=O)N[C@@H](Cc1c[nH]c2ccccc12)C(=O)N[C@H](CC(C)C)C(=O)N[C@@H](Cc1c[nH]c2ccccc12)C(=O)NCCO)[C@H](C)O)C(C)C)C(C)C)C(C)C` [compound 10674] (For-VGA[dL]A[dV]V[dV]W[dT]W[dL]W[dL]W-NHCH2CH2OH), in series [1], the antibacterial activity result is on record as “+”. The compound further showed a viability in series [2] of 87.3%. The “H+/Na+ transport activity normalized” value in series [3] is listed as 1.08.

For the compound `CC(C)C[C@@H](NC(=O)[C@H](Cc1c[nH]c2ccccc12)NC(=O)[C@H](NC(=O)[C@H](Cc1c[nH]c2ccccc12)NC(=O)[C@@H](CC(C)C)NC(=O)[C@H](Cc1c[nH]c2ccccc12)NC(=O)[C@@H](CC(C)C)NC(=O)[C@@H](NC(=O)[C@H](NC(=O)[C@H](C)NC(=O)[C@H](NC(=O)[C@H](C)NC(=O)CNC(=O)[C@@H](NC=O)C(C)C)C(C)C)[C@H](C)O)C(C)C)C(C)C)C(=O)N[C@@H](Cc1c[nH]c2ccccc12)C(=O)NCCO` [compound 10686] (For-VGA[dV]A[dT]V[dL]W[dL]W[dV]W[dL]W-NHCH2CH2OH), in series [1], the antibacterial activity entry is “-”. The same compound returned a viability in series [2] of 100%. Moreover, in series [3], the “H+/Na+ transport activity normalized” value is on record as 1.05.

In the case of `CC(C)C[C@@H](NC(=O)[C@H](C)NC(=O)[C@H](NC(=O)[C@H](C)NC(=O)CNC(=O)[C@@H](NC=O)C(C)C)C(C)C)C(=O)N[C@H](C(=O)N[C@H](CC(C)C)C(=O)N[C@@H](Cc1c[nH]c2ccccc12)C(=O)N[C@@H](C(=O)N[C@@H](Cc1c[nH]c2ccccc12)C(=O)N[C@@H](C(=O)N[C@@H](Cc1c[nH]c2ccccc12)C(=O)N[C@H](CC(C)C)C(=O)N[C@@H](Cc1c[nH]c2ccccc12)C(=O)NCCO)C(C)C)C(C)C)C(C)C` [compound 11126] (For-VGA[dV]A[dL]V[dL]W[dV]W[dV]W[dL]W-NHCH2CH2OH), the antibacterial activity entry in series [1] is reported as “-”. This compound also returned a viability in series [2] of 8.7%. Besides, the “H+/Na+ transport activity normalized” value in series [3] is 1.07.

As to `CNC(=O)C[C@@H](NC(=O)[C@H](C)NC(=O)CNC(=O)[C@@H](NC=O)C(C)C)C(=O)N[C@@H](C)C(=O)N[C@@H](C(=O)N[C@H](C(=O)N[C@@H](C(=O)N[C@@H](Cc1c[nH]c2ccccc12)C(=O)N[C@H](CC(C)C)C(=O)N[C@@H](Cc1c[nH]c2ccccc12)C(=O)N[C@H](CC(C)C)C(=O)N[C@@H](Cc1c[nH]c2ccccc12)C(=O)N[C@@H](C(=O)N[C@@H](Cc1c[nH]c2ccccc12)C(=O)NCCO)C(C)C)C(C)C)C(C)C)C(C)C` [compound 11200] (For-VGA[dD](NHMe)A[dV]V[dV]W[dL]W[dL]W[dV]W-NHCH2CH2OH), the antibacterial activity entry in series [1] was “-”. The viability in series [2] was determined as 66%. For the same compound, in series [3], the “H+/Na+ transport activity normalized” value was found to be 1.06.

In the case of `CC(C)C[C@@H](NC(=O)[C@H](C)NC(=O)[C@H](NC(=O)[C@H](C)NC(=O)CNC(=O)[C@@H](NC=O)C(C)C)C(C)C)C(=O)N[C@H](C(=O)N[C@@H](C(=O)N[C@@H](Cc1c[nH]c2ccccc12)C(=O)N[C@@H](C(=O)N[C@@H](Cc1c[nH]c2ccccc12)C(=O)N[C@H](CC(C)C)C(=O)N[C@@H](Cc1c[nH]c2ccccc12)C(=O)N[C@@H](C(=O)N[C@@H](Cc1c[nH]c2ccccc12)C(=O)NCCO)C(C)C)C(C)C)C(C)C)C(C)C` [compound 11268] (For-VGA[dV]A[dL]V[dV]W[dV]W[dL]W[dV]W-NHCH2CH2OH), in series [1], the antibacterial activity entry is reported as “+”. Moreover, in series [2], the viability worked out at 100%. Besides, in series [3], the “H+/Na+ transport activity normalized” value is recorded as 1.06.
